Data taken from patent US20060166900A1, “Salt of morphine-6-glucuronide” (CeNeS Limited, priority 2002, published 2006).

Tests used:
Type in all cases: physicochemical
[1] = Stability of M6G salts at room temperature over 6 years, HPLC; conditions: for Assay M6G corr.: content calculated as M6G derivative; for degradation / discolouration: storage at room temperature for six years, hydrobromide
[2] = Visual appearance on storage (Example 3)
Description: (§1) Each test material was stored between 2-8*C prior to placing on stability. Each material was sub-divided into 900 mg aliquots, transferred to brown opaque HDPE plastic bottles and flushed with Argon prior to sealing. Sufficient samples were provided for each time point as well as spares for each storage condition. The samples were placed in appropriate incubators previously commissioned at storage conditions 25° C./60% RH, 40° C./75% RH and 60° C.
The samples were stored for analysis according to the following table: […]

[3] = Colour of solution by visible spectrophotometry on storage (Example 3); conditions: 5% w/v solution in water
Description: Colour of solution by UV spectrophotometry.
as §1
Colour by Visible Spectrophotometry
A 5% w/v solution of test material was prepared in water and the absorbance measured at 420 nm in a 1 cm silica cell using a Unicam UV4 Visible/UV spectrophotometer.

[4] = Water content by Karl Fisher analysis on storage (Example 3)
Description: Water content (% w/w) by Karl Fisher analysis
as §1
Water Content by Karl Fisher Analysis
Water content was determined in duplicate on an aliquot of equilibrated material (approximately 100 mg) using a Tritrino 720 KFS Titrator.

[5] = Stability indicating HPLC assay and related substances on storage (Example 3)
Description: Assay (% w/w) and related substances determination
as §1
Testing Procedures Test for Identity Content and Impurities
Testing was performed in duplicate (2×25 mg) in accordance with a stability indicating HPLC assay method. The assay results were reported as M6G as is, M6G as the anhydrous, solvent free material and the anhydrous solvent free material corrected for the salt form using the relevant conversion factor.

[6] = almost 6 years at room temperature
[7] = listed as hydrobromide salt of M6G

SMILES: Br.CN1CC[C@]23c4c5ccc(O)c4O[C@H]2[C@@H](O[C@@H]2O[C@H](C(=O)O)[C@@H](O)[C@H](O)[C@H]2O)C=C[C@H]3[C@H]1C5 [Morphine-6-glucuronide hydrobromide]
- HN-33177 ([1]; 0 years): 0.3%
- HN-75083 ([1]; 0 years): <0.1%
- Unknown related substances (sum area %) ([1]; 0 years): <0.1 area %
- Assay M6G corr. ([1]; 0 years): 90.7%
- HN-33177 ([1]; 6 years at ambient temperature): 0.4%
- HN-67002 ([1]; 6 years at ambient temperature): 0.5%
- HN-67003 ([1]; 6 years at ambient temperature): 0.2%
- Unknown related substances (sum area %) ([1]; 6 years at ambient temperature): 1.0 area %
- Assay M6G corr. ([1]; 6 years at ambient temperature): 96.3%
- largest unidentified peak [1, 6]: ≤ 0.4 area %
- peaks present in the chromatogram that cannot be identified by retention time [1, 6]: 4
- degradation ([1]; listed as M6G.HBr): very limited amount of degradation
- discolouration ([1]; listed as M6G.HBr): no discolouration
- degradation [1, 7]: very limited degradation
- discolouration [1, 7]: not discoloured
- Appearance ([2]; 1 month, 25° C./60% RH): White crystalline powder
- Appearance ([2]; 1 month, 40° C./75% RH): White crystalline powder
- Appearance ([2]; 1 month, 60° C.): White crystalline powder
- Appearance ([2]; 3 months, 25° C./60% RH, hydrobromide): White crystalline powder
- Appearance ([2]; 3 months, 25° C./60% RH, listed as hydrobromide, hydrobromide): white crystalline solids
- Appearance ([2]; 3 months, 40° C./75% RH): White crystalline powder
- Appearance ([2]; Initial): White crystalline powder
- Colour ([3]; 1 month, 25° C./60% RH): 0.073 Abs@420 nm
- Colour ([3]; 1 month, 40° C./75% RH): 0.064 Abs@420 nm
- Colour ([3]; 1 month, 60° C.): 0.261 Abs@420 nm
- Colour ([3]; 3 months, 25° C./60% RH): 0.046 Abs@420 nm
- Colour ([3]; 3 months, 40° C./75% RH): 0.066 Abs@420 nm
- Colour ([3]; Initial): 0.029 Abs@420 nm
- Moisture ([4]; 1 month, 25° C./60% RH): 2.56 % w/w
- Moisture ([4]; 1 month, 40° C./75% RH): 3.19 % w/w
- Moisture ([4]; 1 month, 60° C.): 1.95 % w/w
- Moisture ([4]; 3 months, 25° C./60% RH): 3.28 % w/w
- Moisture ([4]; 3 months, 40° C./75% RH): 4.24 % w/w
- Moisture ([4]; Initial): 2.38 % w/w
- Known Related Substances HN33177 ([5]; 1 month, 25° C./60% RH): 0.74%
- Known Related Substances HN75083 ([5]; 1 month, 25° C./60% RH): 0.03%
- M6G Assay, Anhydrous basis ([5]; 1 month, 25° C./60% RH): 85.18 % w/w
- M6G Assay, As is basis ([5]; 1 month, 25° C./60% RH): 83.02 % w/w
- M6G Assay, Corrected for the salt form ([5]; 1 month, 25° C./60% RH): 100.11 % w/w
- Total Known ([5]; 1 month, 25° C./60% RH): 0.77%
- Total Related Substances ([5]; 1 month, 25° C./60% RH): 0.84%
- Total Unknown ([5]; 1 month, 25° C./60% RH): 0.07%
- Known Related Substances HN33177 ([5]; 1 month, 40° C./75% RH): 0.74%
- Known Related Substances HN75076 ([5]; 1 month, 40° C./75% RH): 0.01%
- Known Related Substances HN75083 ([5]; 1 month, 40° C./75% RH): 0.05%
- M6G Assay, Anhydrous basis ([5]; 1 month, 40° C./75% RH): 85.09 % w/w
- M6G Assay, As is basis ([5]; 1 month, 40° C./75% RH): 82.40 % w/w
- M6G Assay, Corrected for the salt form ([5]; 1 month, 40° C./75% RH): 100.01 % w/w
- Total Known ([5]; 1 month, 40° C./75% RH): 0.80%
- Total Related Substances ([5]; 1 month, 40° C./75% RH): 0.80%
- Total Unknown ([5]; 1 month, 40° C./75% RH): 0.00%
- Known Related Substances HN33177 ([5]; 1 month, 60° C.): 0.66%
- Known Related Substances HN67003 ([5]; 1 month, 60° C.): 0.10%
- Known Related Substances HN75076 ([5]; 1 month, 60° C.): 0.04%
- Known Related Substances HN75083 ([5]; 1 month, 60° C.): 0.02%
- M6G Assay, Anhydrous basis ([5]; 1 month, 60° C.): 84.44 % w/w
- M6G Assay, As is basis ([5]; 1 month, 60° C.): 82.82 % w/w
- M6G Assay, Corrected for the salt form ([5]; 1 month, 60° C.): 99.25 % w/w
- Total Known ([5]; 1 month, 60° C.): 0.82%
- Total Related Substances ([5]; 1 month, 60° C.): 1.20%
- Total Unknown ([5]; 1 month, 60° C.): 0.38%
- stability based on % w/w assay ([5]; 3 month assay data): most stable
- Known Related Substances HN33177 ([5]; 3 months, 25° C./60% RH): 0.77%
- Known Related Substances HN75083 ([5]; 3 months, 25° C./60% RH): 0.04%
- M6G Assay, Anhydrous basis ([5]; 3 months, 25° C./60% RH): 86.19 % w/w
- M6G Assay, As is basis ([5]; 3 months, 25° C./60% RH): 84.30 % w/w
- M6G Assay, Corrected for the salt form ([5]; 3 months, 25° C./60% RH): 101.30 % w/w
- Total Known ([5]; 3 months, 25° C./60% RH): 0.81%
- Total Related Substances ([5]; 3 months, 25° C./60% RH): 0.93%
- Total Unknown ([5]; 3 months, 25° C./60% RH): 0.12%
- Known Related Substances HN33177 ([5]; 3 months, 40° C./75% RH): 0.70%
- Known Related Substances HN75076 ([5]; 3 months, 40° C./75% RH): 0.02%
- M6G Assay, Anhydrous basis ([5]; 3 months, 40° C./75% RH): 85.85 % w/w
- M6G Assay, As is basis ([5]; 3 months, 40° C./75% RH): 83.14 % w/w
- M6G Assay, Corrected for the salt form ([5]; 3 months, 40° C./75% RH): 100.90 % w/w
- Total Known ([5]; 3 months, 40° C./75% RH): 0.72%
- Total Related Substances ([5]; 3 months, 40° C./75% RH): 0.72%
- Total Unknown ([5]; 3 months, 40° C./75% RH): 0.00%
- increase in the amount of degradation products as measured by HPLC ([5]; 3 months, 40° C./75% RH): basically no increase
- stability assessment ([5]; 25° C./60% RH and 40° C./75% RH for 3 months and 60° C. for 1 month): stable
- Known Related Substances HN33177 ([5]; Initial): 0.72%
- Known Related Substances HN67003 ([5]; Initial): 0.04%
- Known Related Substances HN75083 ([5]; Initial): 0.10%
- M6G Assay, Anhydrous basis ([5]; Initial): 83.63 % w/w
- M6G Assay, As is basis ([5]; Initial): 82.26 % w/w
- M6G Assay, Corrected for the salt form ([5]; Initial): 98.29 % w/w
- Total Known ([5]; Initial): 0.86%
- Total Related Substances ([5]; Initial): 0.94%
- Total Unknown ([5]; Initial): 0.08%
- overall stability comparison ([5]; overall review of Example 3 data): more stable than all other salts and the base
